# Article PMC3504033, “Inhibition of Angiotensin-Converting Enzyme Activity by Flavonoids: Structure-Activity Relationship Studies” (PLoS ONE, 2012)
# Like-named read-outs stand apart in the source and are kept apart here.
# Assays:
# [1] = biological target: T1, Angiotensin-I Converting Enzyme from rabbit lung (Oryctolagus cuniculus, UniProt P12822); assay: ACE-inhibitory (ACEI) activity, fluorimetric assay with o-Abz-Gly-p-Phe(NO2)-Pro substrate; type: biochemical; conditions: for relative IC50 ratio: IC50 relative to luteolin (1); for IC50: technical and biological triplicate, read-out: IC50 value (concentration that inhibits ACE activity by 50%); for change of ACEI activity on structural change, vs. luteolin: compared with luteolin (Figure 3); for inhibition at 100 µM / inhibition at 500 µM: 0.5 h; for inhibition at 100 µM: mean of three experiments (Figure 2A)
# T1 construct: Angiotensin-I Converting Enzyme from rabbit lung; purchased Sigma (Barcelona, Spain); host or cells: rabbit lung tissue
# T1 sequence (P12822 34-1310): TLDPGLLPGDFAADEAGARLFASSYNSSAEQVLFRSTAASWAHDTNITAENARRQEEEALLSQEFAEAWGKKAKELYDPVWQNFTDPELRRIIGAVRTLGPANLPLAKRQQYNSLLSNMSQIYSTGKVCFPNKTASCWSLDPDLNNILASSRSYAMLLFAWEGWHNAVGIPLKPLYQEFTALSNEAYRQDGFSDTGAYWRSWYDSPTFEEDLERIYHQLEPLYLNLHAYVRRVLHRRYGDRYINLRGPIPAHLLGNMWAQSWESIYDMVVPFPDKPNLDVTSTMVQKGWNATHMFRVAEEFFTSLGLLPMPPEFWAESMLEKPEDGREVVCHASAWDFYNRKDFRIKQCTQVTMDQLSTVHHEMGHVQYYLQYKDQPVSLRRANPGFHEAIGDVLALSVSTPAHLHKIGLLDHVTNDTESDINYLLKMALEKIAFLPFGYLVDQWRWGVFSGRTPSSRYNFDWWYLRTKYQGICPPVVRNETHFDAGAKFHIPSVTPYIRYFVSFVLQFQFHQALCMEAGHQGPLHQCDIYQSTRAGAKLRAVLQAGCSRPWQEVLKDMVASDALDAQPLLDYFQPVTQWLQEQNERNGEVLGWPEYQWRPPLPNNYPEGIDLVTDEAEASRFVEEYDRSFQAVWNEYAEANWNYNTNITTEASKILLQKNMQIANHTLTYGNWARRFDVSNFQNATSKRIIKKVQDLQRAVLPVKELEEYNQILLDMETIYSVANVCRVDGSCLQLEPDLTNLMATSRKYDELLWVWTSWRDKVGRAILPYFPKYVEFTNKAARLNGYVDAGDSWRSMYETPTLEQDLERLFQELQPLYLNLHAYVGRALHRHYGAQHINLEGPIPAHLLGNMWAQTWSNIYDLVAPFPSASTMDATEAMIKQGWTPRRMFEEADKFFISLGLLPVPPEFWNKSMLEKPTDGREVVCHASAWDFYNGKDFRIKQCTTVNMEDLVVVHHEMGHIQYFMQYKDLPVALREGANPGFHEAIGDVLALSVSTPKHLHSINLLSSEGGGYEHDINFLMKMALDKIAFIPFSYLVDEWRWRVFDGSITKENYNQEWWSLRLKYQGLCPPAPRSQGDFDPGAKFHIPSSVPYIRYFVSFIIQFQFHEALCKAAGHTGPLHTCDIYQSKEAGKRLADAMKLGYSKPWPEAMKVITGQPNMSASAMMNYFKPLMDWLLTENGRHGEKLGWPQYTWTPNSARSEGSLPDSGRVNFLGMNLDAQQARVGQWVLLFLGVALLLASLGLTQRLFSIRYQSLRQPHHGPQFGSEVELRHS
# Source text: o-aminobenzoylglycyl-p-nitro-phenylalanylproline (o-ABz-Gly-Phe(NO2)-Pro) was purchased from Bachem Feinchemikalien (Bubendorf, Switzerland). Five units of Angiotensin-I Converting Enzyme from rabbit lung and ZnCl2 were obtained from Sigma (Barcelona, Spain). […] Flavonoids were solubilized in dimethyl sulfoxide (DMSO) and prepared daily. In all experiments, the final concentration of DMSO was 0.4%. Distilled water was obtained from a Millipore Milli-Q® system.
# Flavonoid solutions (100 and 500 µM) were prepared in DMSO (0.4%) daily. The 0.1 U/mL ACE solution stock was prepared in glycerol: water (1∶1), aliquoted and stored at −20°C. The 0.1 µM ZnCl2 stock solution was prepared and stored at 4°C. The ACE working solution was prepared daily by diluting it in 150 mM Tris buffer (pH 8.3) containing 0.1 µM ZnCl2.
# ACEI activity was measured by a fluorimetric assay following the method of Sentandreu and Toldrá [43] with some modifications. […] Fluorescence was measured after 30 min in 96-well microplates (Thermo Scientific, Rochester, NY) using a multiscan microplate fluorimeter (Biotek. FL×800). Microplates (Thermo Scientific, Rochester, NY) were used in this assay. The excitation and emission wavelengths were 360 and 430 nm, respectively. The activity of each sample was tested in technical and biological triplicate.
# The ACEI activity was calculated using the following formula: [drawing 1] where A is the fluorescence without the flavonoid solution, B is the fluorescence without ACE and C is the fluorescence in the presence of both ACE and the flavonoid solution. A flavonoid solution of 500 µM was selected on the basis of previous studies, [35], and the concentration of 100 µM was chosen because it is within the physiological concentration range. […] The IC50 of each selected flavonoid was tested in technical and biological triplicate. The results from three experiments are expressed as the mean ± SD and were performed in different platelet samples.
# ACE N domain = test system: ACE N domain; parameters: method as in PMID 11303049; conditions: ACE inhibition with N-domain-specific inhibitor; cited from earlier work
# [2] = 100 µM flavonoid, purified lung ACE, 37°C, 30 min, read-out: percentage of ACE inhibition
# [3] = 500 µM flavonoid, purified lung ACE, 37°C, 30 min, mean of three experiments (Figure 2B), read-out: percentage of ACE inhibition
# [4] = read-out: percentage of ACE inhibition, 100 µM flavonoid, purified lung ACE, 37°C, 30 min
smiles,measurement,setting,value
O=c1cc(-c2ccc(O)cc2)oc2cc(O)cc(O)c12.[K] [Apigenin K],relative IC50 ratio,[1],8.52
same,IC50,[1],196 µM
O=c1cc(-c2ccc(O)cc2)oc2cc(O)cc(O)c12 [Apigenin],"change of ACEI activity on structural change, vs. luteolin",[1]; 100 µM,−57%
same,reduction of ACEI activity relative to luteolin,[1]; 100 µM,57%
same,inhibition at 100 µM,[1]; [2],24.7%
Oc1cc(O)c2c(c1)O[C@H](c1ccc(O)c(O)c1)[C@@H](O)C2 [Catechin],inhibition at 100 µM,[1]; [2],7.5%
same,inhibition at 500 µM,[1]; [3],29%
COc1ccc(-c2cc(=O)c3c(O)cc(O)cc3o2)cc1O [Diosmetin],"change of ACEI activity on structural change, vs. luteolin",[1]; 100 µM,−78%
same,reduction of ACEI activity relative to luteolin,[1]; 100 µM,78%
same,inhibition at 100 µM,[1]; [2],12.5%
COc1ccc(-c2cc(=O)c3c(O)cc(O[C@@H]4O[C@H](CO[C@@H]5O[C@@H](C)[C@H](O)[C@@H](O)[C@H]5O)[C@@H](O)[C@H](O)[C@H]4O)cc3o2)cc1O [Diosmin],inhibition at 100 µM,[1]; [2],9.3%
same,inhibition at 500 µM,[1]; [3],> 30%
Oc1cc(O)c2c(c1)O[C@H](c1ccc(O)c(O)c1)[C@H](O)C2 [Epicatechin],"change of ACEI activity on structural change, vs. luteolin",[1]; 100 µM,−74%
same,inhibition at 100 µM,[1]; [2],15%
same,inhibition at 500 µM,[1]; [3],> 30%
O=c1c(-c2ccc(O)cc2)coc2cc(O)cc(O)c12 [Genistein],inhibition at 100 µM,[1]; [2],25.7%
same,inhibition at 500 µM,[1]; [3],> 30%
COc1ccc([C@@H]2CC(=O)c3c(O)cc(O)cc3O2)cc1O [Hesperetin],inhibition at 100 µM,[1]; [2],0.7%
same,inhibition at 500 µM,[1]; [3],> 30%
COc1ccc(C2CC(=O)c3c(O)cc(OC4OC(COC5OC(C)C(O)C(O)C5O)C(O)C(O)C4O)cc3O2)cc1O (centres unmarked) [Hesperidin],inhibition at 100 µM,[1]; [4],0%
same,inhibition at 500 µM,"[1]; read-out: percentage of ACE inhibition, 500 µM flavonoid, purified lung ACE, 37°C, 30 min, mean of three experiments (Figure 2B)",17%
O=c1c(O)c(-c2ccc(O)cc2)oc2cc(O)cc(O)c12 [Kaempferol],inhibition at 100 µM,[1]; [2],> 30%
same,relative IC50 ratio,[1],7.74
same,increase in the IC50 relative to quercetin,[1]; relative to quercetin,4 fold
same,IC50,[1],178 µM
O=c1cc(-c2ccc(O)c(O)c2)oc2cc(O)cc(O)c12 [Luteolin],relative IC50 ratio,[1],1
same,IC50,[1],23 µM
O=C1C[C@@H](c2ccc(O)cc2)Oc2cc(O)cc(O)c21.[K] [Naringenin K],percentage of ACE inhibition,"[1]; 500 µM flavonoid, purified lung ACE, 37°C, 30 min, mean of three experiments (Figure 2B), listed as narigenin K",higher than 30%
O=C1C[C@@H](c2ccc(O)cc2)Oc2cc(O)cc(O)c21 [Naringenin],"change of ACEI activity on structural change, vs. apigenin","[1]; 100 µM, compared with apigenin (Figure 3)",−91%
same,reduction of ACEI activity vs. apigenin,"[1]; 100 µM, vs. apigenin",91%
same,inhibition at 100 µM,[1]; [2],2.3%
same,inhibition at 500 µM,[1]; [3],22.3%
C[C@@H]1O[C@@H](O[C@H]2[C@H](Oc3cc(O)c4c(c3)O[C@H](c3ccc(O)cc3)CC4=O)O[C@H](CO)[C@@H](O)[C@@H]2O)[C@H](O)[C@H](O)[C@H]1O [Naringin],inhibition at 100 µM,[1]; [2],4.5%
same,inhibition at 500 µM,[1]; [3],23.3%
O=c1c(O)c(-c2ccc(O)c(O)c2)oc2cc(O)cc(O)c12 [Quercetin],"change of ACEI activity on structural change, vs. luteolin",[1]; 100 µM,−44%
same,inhibition at 100 µM,[1]; [4],> 30%
CC(=O)N[C@@H](CC(=O)O)C(=O)N[C@@H](Cc1ccccc1)P(=O)(O)C[C@@H](C)C(=O)N[C@@H](C)C(N)=O [RXP407],effect on blood pressure regulation,ACE N domain,no effect on blood pressure regulation
"C[C@@H]1O[C@@H](O[C@H]2[C@H](Oc3cc(O)c4c(=O)cc(-c5ccc(O)cc5)oc4c3)O[C@H](CO)[C@@H](O)[C@@H]2O)[C@H](O)[C@H](O)[C@H]1O [Rhoifolin, apigenin 7-O-glycoside]",inhibition at 100 µM,[1]; [2],> 30%
same,relative IC50 ratio,[1],7.96
same,IC50,[1],183 µM
"C[C@@H]1O[C@@H](OC[C@H]2O[C@@H](Oc3c(-c4ccc(O)c(O)c4)oc4cc(O)cc(O)c4c3=O)[C@H](O)[C@@H](O)[C@@H]2O)[C@H](O)[C@H](O)[C@H]1O [Rutin, quercetin 3-O-glycoside]","change of ACEI activity on structural change, vs. luteolin",[1]; 100 µM,-36%
same,inhibition at 100 µM,[1]; [2],> 30%
same,relative IC50 ratio,[1],2.78
same,IC50,[1],64 µM
